Test results as given in patent EP2647374A1, “Nutritional compositions including beta-hydroxy-beta-methylbutyrate for regulating transcription factors” (Abbott Laboratories, Inc., priority 2012, dated 2013).

Columns and labels:
[1] = system: L6 myotubes; experiment: Protein degradation assay ([3H]Tyr release) in dexamethasone-treated myotubes; type: cell-based, rat; settings: pre-incubation HMB 25 µM or Leu 10 mM 48 hours, then 48 hours with dexamethasone 5 µM
Method: (§1) Cell culture. The L6.C11 rat skeletal muscle myoblast line (ECACC No. 92102119) was grown in DMEM containing 10% (v/v) FCS, 2 mmol/l Glutamine plus 100 units/ml penicillin and 0.1 mg/ml streptomycin (Sigma) in an atmosphere of air/CO2 (95:5) and maintained at subconfluent densities in growth media. Cells were differentiated to myotubes by exchanging the growth medium for a differentiation medium consisting of DMEM containing 2% (v/v) FCS for 3-4 days (>50% fusion into multinucleated myotubes).
(§2) Protein synthesis and degradation assays. […] At the completion of the labeling period, cultures were rinsed three times with PBS, cells were lysed with sodium desoxycholate 0.1%/NaOH 0.1 M and protein was precipitated with cold 10% TCA in PBS overnight, rinsed once with cold 10% TCA, solubilized in NaOH 0.5 M, neutralized with HCl 0.5 M and mixed with scintillation fluid, and radioactivity was determined using a scintillation counter. […] Degradation rates were determined according to Hong & Forsberg, 1995.
To study the effects of HMB and Leu on protein degradation induced by dexamethasone, L6 differentiated myotubes were first differentiated to myotubes for 3 days in 2% FBS, and then the medium was changed to 10% FBS for the remainder of the experiment. […] After the incubation, protein degradation for each condition was calculated. […] Results are expressed as mean ± SEM of six independent experiments.

[2] = system: FOXO; experiment: FOXO-responsive luciferase reporter assay in L6 cells; type: cell-based, rat
Description: (§3) Reporter gene constructs. For the analysis of rat Ubiquitin (UbC) promoter, a 417 bp fragment of 417 bp flanking the transcription start point was amplified from rat genomic DNA. This fragment was similar to those that have been characterized for the human and rat promoters. The sequences of all constructs were verified by automated DNA sequencing. The Cignal FOXO Reporter (luc) kit, CCS-1022L, was provided by SABiosciences and contains a mixture of inducible FOXO-responsive firefly luciferase construct and constitutively expressing Renilla luciferase construct (40:1).
(§4) DNA transfection assays. For transfection experiments, cells were used at 80-90% confluence. […] Luciferase activity was determined using standard reagents (Dual Luciferase method, Promega) in a luminometer (Sirius L, Berthold Technologies, Bad Wildbad, Germany) and results were standardized for Renilla luciferase activity. […] To allow comparison of the expression patterns, the data were expressed as relative changes in luciferase activity and were normalized to a value of 100%.
To address whether the down-regulation of atrogin-1 in HMB- pretreated cells was accompanied by an underlying regulation of the FOXO transcription factor, the total FOXO expression (monitored by using FOXO-luciferase reporter gene activity) and the amount FOXO3a transcription factor in the nucleus were analyzed. […]

[3] = system: UbC promoter; experiment: pGL3-UbC luciferase reporter assay in L6 myotubes; type: cell-based, rat; settings: pre-treatment HMB 25 µM or Leu 10 mM 48 hours, then dexamethasone 5 µM 48 hours
Description: as §3, §4
Additionally, the effect of HMB and Leu on UbC promoter implicated in protein degradation induced by dexamethasone was analyzed. […] Results are expressed as means ± SEM of six independent experiments.

[4] = system: L6 myotubes; experiment: Protein synthesis assay ([3H]Tyr incorporation) in dexamethasone-treated myotubes; type: cell-based, rat; settings: HMB 25 µM or Leu 10 mM, 2 hours plus 1 hour labeling, dexamethasone 5 µM
Method: as §1, §2
Particularly, L6 myotubes were treated with HMB (25 µM) or Leu (10 mM) for 2 hours in the presence or absence of dexamethasone (5 µM). […] After the incubation, protein synthesis for each condition was calculated. […] Results are expressed as means ± SEM of six independent experiments.

[5] = system: mTOR; experiment: Western blot of phospho-mTOR vs total mTOR in L6 myotubes; type: cell-based, rat; settings: basal, without dexamethasone; HMB 25 µM or Leu 10 mM, 30 minutes
Method: (§5) Protein phosphorylation analysis. L6 myotubes were incubated with HMB or Leu in the absence or presence of dexamethasone for 30 minutes. After treatment, plates were flash frozen in liquid nitrogen and were scraped with 50 µl/60 mm/plate of cold 30 mmol/L Tris-HCl pH 7.4, 25 mmol/L NaCl, 1% (v/v) Triton X-100, 0.1% SDS, 10 mmol/L sodium fluoride, 10 mmol/L sodium pyrophosphate, 1 mmol/L sodium orthovanadate, 1 mmol/L EGTA, 20 nmol/L okadaic acid, 10 µg/ml aprotinin, 10 µg/ml leupeptin, 10 µg/ml pepstatin. After 10 minutes on ice, extracts were centrifuged at 13000 g for 10 minutes at 4°C. Protein concentration from the supernatants was measured using the Bio-Rad Protein Assay. […]
(§6) L6 Myoblasts were differentiated to myotubes for 3 days in 2% FBS. […] Cells were lysed in phosphorylation buffer and analyzed by Western blot using an anti-phospho PKB/Akt antibody (FIG. 3A), anti-phospho mTOR antibody (FIG. 3B), or anti-atrogin-1 antibody (FIG. 3C). […] The lower panels of each of FIGS. 3A-3C show densitometric quantification of: phospho-PKB/total PKB protein abundance (FIG. 3A); phospho-mTOR/total mTOR protein abundance (FIG. 3B); or atrogin-1 protein abundance using Histone H3 (FIG. 3C) as a reference control. Results are expressed as means ± SEM of four independent experiments.

[6] = system: ERK1/2; experiment: Western blot of phospho-ERK1/2 vs total ERK1/2 in L6 myotubes; type: cell-based, rat; settings: HMB 25 µM or Leu 10 mM, 30 minutes
Method: Protein phosphorylation analysis. L6 myotubes were incubated with HMB or Leu in the absence or presence of dexamethasone for 30 minutes. After treatment, plates were flash frozen in liquid nitrogen and were scraped with 50 µl/60 mm/plate of cold 30 mmol/L Tris-HCl pH 7.4, 25 mmol/L NaCl, 1% (v/v) Triton X-100, 0.1% SDS, 10 mmol/L sodium fluoride, 10 mmol/L sodium pyrophosphate, 1 mmol/L sodium orthovanadate, 1 mmol/L EGTA, 20 nmol/L okadaic acid, 10 µg/ml aprotinin, 10 µg/ml leupeptin, 10 µg/ml pepstatin. After 10 minutes on ice, extracts were centrifuged at 13000 g for 10 minutes at 4°C. Protein concentration from the supernatants was measured using the Bio-Rad Protein Assay. Proteins (25-40 µg) were separated by SDS-PAGE and immunoblotted with selected antibodies; the immunoblots were developed by chemiluminescence detection.
Taking into account that phosphorylation of FOXO3a by ERK is a required step for FOXO3a ubiquitination and subsequent proteosomal degradation of this transcription factor in the cytoplasm, the effect of HMB and Leu on ERK activation was also analyzed. Specifically, L6 Myoblasts were differentiated to myotubes for 3 days in 2% FBS. […] Cells were lysed in phosphorylation buffer and analyzed by Western blot using an anti-phospho ERK1/2 antibody. […] Results are expressed as means ± SEM of four independent experiments.

[7] = system: PKB/Akt; experiment: Western blot of phospho-PKB/Akt vs total PKB/Akt in L6 myotubes; type: cell-based, rat; settings: basal, without dexamethasone; HMB 25 µM or Leu 10 mM, 30 minutes
Method: as §5, §6

[8] = system: FOXO3a; experiment: Western blot of FOXO3a in nuclear extracts of L6 cells (Histone H3 reference); type: cell-based, rat
Method: Preparation of nuclear extracts. Nuclear extracts from L6 cells were prepared following Bhavsar et al. Protein concentration was measured in nuclear extracts using the Bio-Rad Protein Assay kit. Aliquots of the extracts (40 µg) were resolved by 10% SDS-PAGE and analyzed by immunoblotting using a 1:1000 dilution of polyclonal anti-FOXO3a or anti-Histone H3 antibodies. The antigen-antibody complexes were detected with HRP-conjugated secondary antibodies using a chemiluminescence detection system (Bio-Rad).
To address whether the down-regulation of atrogin-1 in HMB- pretreated cells was accompanied by an underlying regulation of the FOXO transcription factor, the total FOXO expression (monitored by using FOXO-luciferase reporter gene activity) and the amount FOXO3a transcription factor in the nucleus were analyzed. L6 Myoblasts were differentiated to myotubes for 3 days in 2% FBS. After the differentiation process, medium was changed to 10% FBS for the remainder of the experiment. Myotubes were incubated in the presence or absence of HMB (25 µM) or Leu (10 mM) for 48 hours. […]
Further, L6 untransfected cells were treated as above, nuclear extracts were obtained as described in the material and methods section and analyzed by Western blot using an anti-FOXO3 antibody. […] Results are expressed as means ± SEM of four independent experiments.

[9] = system: atrogin-1; experiment: cells; type: cell-based; settings: Rattus norvegicus, L6, 48 h, read-out: increase in amount of atrogin-1
Method: Atrogin-1 analysis. L6 myotubes were pre-incubated with HMB 25 µM or Leu 10 mM for 48 hours. Then, dexamethasone 5 µM was added for another 48 hours. After treatment, cells were lysed with RIPA buffer (Sigma) supplemented with inhibitor protease cocktail (Sigma). Lysates were sonicated and protein concentration was measured using the Bio-Rad Protein Assay. Proteins (40 µg) were separated by SDS-PAGE and immunoblotted with anti-atrogin antibody.
L6 Myoblasts were differentiated to myotubes for 3 days in 2% FBS. Cells were deprived of FBS for 12 hours and incubated with HMB (25 µM) or Leu (10 mM) and insulin (100 nmol/l) in the absence or presence of dexamethasone (5 µM) for 30 minutes. Cells were lysed in phosphorylation buffer and analyzed by Western blot using an anti-phospho PKB/Akt antibody (FIG. 3A), anti-phospho mTOR antibody (FIG. 3B), or anti-atrogin-1 antibody (FIG. 3C). As a loading control, results were normalized using an anti-total PKB/Akt antibody, anti-total mTOR antibody, or an anti-Histone H3 antibody (see FIGS. 3A-3C, respectively). […] The lower panels of each of FIGS. 3A-3C show densitometric quantification of: phospho-PKB/total PKB protein abundance (FIG. 3A); phospho-mTOR/total mTOR protein abundance (FIG. 3B); or atrogin-1 protein abundance using Histone H3 (FIG. 3C) as a reference control. Results are expressed as means ± SEM of four independent experiments.

[10] = basal conditions, absence of dexamethasone, HMB 25 µM or Leu 10 mM
[11] = pre-treatment HMB 25 µM or Leu 10 mM 48 hours, then dexamethasone 5 µM 12 hours

Compound: CC(C)(O)CC(=O)O [HMB, beta-hydroxy-beta-methylbutyrate]
- inhibition at 25 µM ([1]; Rattus norvegicus, L6, read-out: decrease of proteolysis induced by dexamethasone): ~60%

Compound: CC(C)C[C@H](N)C(=O)O [Leu, Leucine]
- FOXO basal activity [2, 10]: neither HMB nor Leu were able to significantly change FOXO basal activity or amount
- FOXO overexpression induced by dexamethasone (reporter activity) [2, 11]: did not have any effect on the dexamethasone-increased FOXO expression and amount
- counteraction of the effects of dexamethasone on Ub-C promoter activity [3]: only HMB was able to significantly counteract the effects of dexamethasone on Ub-C promoter activity
- prevention of the decrease in protein synthesis induced by dexamethasone [4]: but not Leu
- decrease of proteolysis induced by dexamethasone [1]: did not significantly affect glucocorticoid-induced protein degradation
- phosphorylative state of mTOR [5]: did not have influence on the phosporylative state of Akt and mTOR
- ERK activation (phospho-ERK/total ERK) ([6]; atrophic conditions (dexamethasone 5 µM)): induced an activation of ERK kinase either at basal or at atrophic conditions
- ERK activation (phospho-ERK/total ERK) ([6]; basal conditions): induced an activation of ERK kinase either at basal or at atrophic conditions
- phosphorylative state of Akt [7]: did not have influence on the phosporylative state of Akt and mTOR
- FOXO basal amount (nuclear FOXO3a) [8, 10]: neither HMB nor Leu were able to significantly change FOXO basal activity or amount
- FOXO3a nuclear translocation induced by dexamethasone [8, 11]: did not have any effect on the dexamethasone-increased FOXO expression and amount

Compound: C[C@@H]1C[C@H]2[C@@H]3CCC4=CC(=O)C=C[C@]4(C)[C@@]3(F)[C@@H](O)C[C@]2(C)[C@@]1(O)C(=O)CO [dexamethasone]
- fold induction at 5 µM [9]: > 4
